Measurements as given in patent US12083156B1, “Extracts derived from laser-irradiated rhizome of curcuma longa having enhanced antimicrobial activity” (KING FAISAL UNIVERSITY, priority 2023, dated 2024).

Legend:
Test in all cases: Antimicrobial bioassay, inhibition zone
Type in all cases: cell-based
[1] = test system: MRSA; conditions: Staphylococcus aureus, extracts 5 mg/L, Imipenem 10 μg, mean of nine replicate plates
Protocol: (§1) Each of the mean measurements was obtained from the average of nine replicate plates. The test solution positive control was 10 μg Imipenem. Three Curcuma longa extracts (5 mg/L) were prepared from ethanolic rhizome extracts as well as the control.

[2] = test system: Bacillus sp.; conditions: extracts 5 mg/L, Imipenem 10 μg, mean of nine replicate plates
Protocol: as §1

[3] = test system: S. aureus; conditions: Staphylococcus aureus; extracts 5 mg/L; Imipenem 10 μg; mean of nine replicate plates
Protocol: as §1

[4] = test system: E. coli; conditions: Escherichia coli; extracts 5 mg/L; Imipenem 10 μg; mean of nine replicate plates
Protocol: as §1

## C[C@@H](O)[C@H]1C(=O)N2C(C(=O)O)=C(SCCN=CN)C[C@H]12 [Imipenem]
[1]
  zone of inhibition at 10 µg/disc: 25 mm
[2]
  zone of inhibition at 10 µg/disc: 19 mm
[3]
  zone of inhibition at 10 µg/disc: 18 mm
[4]
  zone of inhibition at 10 µg/disc: 20 mm
